Results on 24 compounds are retold here after US9914730B2, “Azaquinazoline inhibitors of Atypical protein Kinase C” (Ignyta, Inc., priority 2012, dated 2018).

Each structure is given as a SMILES string. pIC50: −log10 of the molar value.

The target of this experiment is T1, full-length human PKCι (Homo sapiens, UniProt P41743).
T1 construct: Recombinant, full-length human PKCι expressed in Sf21 insect cells is also commercially available; purchased; host or cells: Sf21 insect cells
T1 sequence (P41743 1-596): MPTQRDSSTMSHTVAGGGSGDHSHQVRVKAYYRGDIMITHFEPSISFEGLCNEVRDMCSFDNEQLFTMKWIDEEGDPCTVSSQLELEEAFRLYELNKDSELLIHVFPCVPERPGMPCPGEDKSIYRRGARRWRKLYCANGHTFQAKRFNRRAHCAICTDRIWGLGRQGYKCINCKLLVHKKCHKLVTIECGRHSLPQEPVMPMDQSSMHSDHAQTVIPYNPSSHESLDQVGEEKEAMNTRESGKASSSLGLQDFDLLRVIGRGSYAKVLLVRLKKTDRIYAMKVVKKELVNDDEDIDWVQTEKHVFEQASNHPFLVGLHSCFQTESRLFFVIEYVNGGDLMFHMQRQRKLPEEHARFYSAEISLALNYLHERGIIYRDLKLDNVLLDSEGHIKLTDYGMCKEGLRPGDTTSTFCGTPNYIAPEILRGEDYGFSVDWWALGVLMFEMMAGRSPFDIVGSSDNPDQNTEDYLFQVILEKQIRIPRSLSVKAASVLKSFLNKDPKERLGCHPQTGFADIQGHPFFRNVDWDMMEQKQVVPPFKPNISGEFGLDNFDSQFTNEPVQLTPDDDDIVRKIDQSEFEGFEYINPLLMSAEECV
In words: PKCι IC50 IMAP assay, full-length PKCι at 150 μM ATP. It is filed as biochemical. To be noted: read-out: IC50 in IMAP assay against full length PKCi at 150 μM ATP. The procedure, abridged: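 Full-length human PKCι from Sf21 cells, typically 15 pM, with 100 nM 5FAM-PKCε pseudosubstrate peptide and 150 μM ATP (5× apparent KM), 60 min at room temperature, 4% DMSO. IMAP fluorescence polarisation read-out; inhibition normalised to no-compound and no-enzyme controls, IC50 from curve fit.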
As to `COc1cncc2nc(-c3ccnc(Nc4cc(C#N)ccn4)c3)nc(N3CCOCC3)c12` [Example 388, 2-[4-(5-Methoxy-4-morpholin-4-yl-pyrido[3,4-d]pyrimidin-2-yl)-pyridin-2-ylamino]-isonicotinonitrile], the pIC50 (usually −log10 of the IC50, conventionally taken in molar units) was 4.40 to 5.00. Take `COc1cncc2nc(-c3ccnc(NC(=O)Cc4cccc(C#N)c4)c3)nc(N3CCOCC3)c12` [Example 389, 2-(3-Cyano-phenyl)-N-[4-(5-methoxy-4-morpholin-4-yl-pyrido[3,4-d]pyrimidin-2-yl)-pyridin-2-yl]-acetamide]: the pIC50 is 6.00 to 7.00. Under `COc1cc(Nc2cc(-c3nc(N4CCNCC4)c4c(OC)cncc4n3)ccn2)cc(OC)c1OC` [Example 390, [4-(5-Methoxy-4-piperazin-1-yl-pyrido[3,4-d]pyrimidin-2-yl)-pyridin-2-yl]-(3,4,5-trimethoxy-phenyl)-amine] stands 6.00 to 7.00; under `COc1cncc2nc(-c3ccnc(NC(=O)Cc4ccc(C(F)(F)F)cc4)c3)nc(N3CCNCC3)c12` [Example 391, N-[4-(5-Methoxy-4-piperazin-1-yl-pyrido[3,4-d]pyrimidin-2-yl)-pyridin-2-yl]-2-(4-trifluoromethyl-phenyl)-acetamide], above 7.00. For the compound `COc1cncc2nc(-c3ccnc(Nc4ccc(-c5ccccc5)nc4)c3)nc(N3CCNCC3)c12` [Example 392, [4-(5-Methoxy-4-piperazin-1-yl-pyrido[3,4-d]pyrimidin-2-yl)-pyridin-2-yl]-(6-phenyl-pyridin-3-yl)-amine], the pIC50 was above 7.00. Then `COc1cncc2nc(-c3ccnc(Nc4ccc(C)nc4)c3)nc(N3CCNCC3)c12` [Example 393, [4-(5-Methoxy-4-piperazin-1-yl-pyrido[3,4-d]pyrimidin-2-yl)-pyridin-2-yl]-(6-methyl-pyridin-3-yl)-amine], with above 7.00; and `COc1ccc(Nc2cc(-c3nc(N4CCNCC4)c4c(OC)cncc4n3)ccn2)cn1` [Example 394, [4-(5-Methoxy-4-piperazin-1-yl-pyrido[3,4-d]pyrimidin-2-yl)-pyridin-2-yl]-(6-methoxy-pyridin-3-yl)-amine], with above 7.00.

Take `COc1cncc2nc(-c3ccnc(Nc4ccc(C(F)(F)F)nc4)c3)nc(N3CCNCC3)c12` [Example 395, [4-(5-Methoxy-4-piperazin-1-yl-pyrido[3,4-d]pyrimidin-2-yl)-pyridin-2-yl]-(6-trifluoromethyl-pyridin-3-yl)-amine]: the pIC50 was 6.00 to 7.00. `COc1cncc2nc(-c3ccnc(NC(=O)Cc4cccnc4)c3)nc(N[C@@H]3CCNC3)c12` [Example 396, N-{4-[5-Methoxy-4-((R)-pyrrolidin-3-ylamino)-pyrido[3,4-d]pyrimidin-2-yl]-pyridin-2-yl}-2-pyridin-3-yl-acetamide]: the pIC50 was above 7.00. Take `COc1cncc2nc(-c3ccnc(Nc4cc(C#N)ccn4)c3)nc(N3CCN(C)CC3)c12` [Example 397, 2-{4-[5-Methoxy-4-(4-methyl-piperazin-1-yl)-pyrido[3,4-d]pyrimidin-2-yl]-pyridin-2-ylamino}-isonicotinonitrile]: the pIC50 was 6.00 to 7.00. In the case of `COc1cncc2nc(-c3ccnc(NC(=O)Cc4cccc(Cl)c4)c3)nc(N3CCN(C)CC3)c12` [Example 398, 2-(3-Chloro-phenyl)-N-{4-[5-methoxy-4-(4-methyl-piperazin-1-yl)-pyrido[3,4-d]pyrimidin-2-yl]-pyridin-2-yl}-acetamide], the pIC50 was 6.00 to 7.00.

For the compound `COc1cncc2nc(-c3ccnc(NC(=O)Cc4cccnc4)c3)nc(N3CCNCC3)c12` [Example 399, N-[4-(5-Methoxy-4-piperazin-1-yl-pyrido[3,4-d]pyrimidin-2-yl)-pyridin-2-yl]-2-pyridin-3-yl-acetamide], the pIC50 was above 7.00. As for `COc1cncc2nc(-c3ccnc(NC(=O)Cc4ccncc4)c3)nc(N3CCNCC3)c12` [Example 400, N-[4-(5-Methoxy-4-piperazin-1-yl-pyrido[3,4-d]pyrimidin-2-yl)-pyridin-2-yl]-2-pyridin-4-yl-acetamide], the pIC50 was above 7.00. `COc1ccnc(Nc2cc(-c3nc(N4CCNCC4)c4c(OC)cncc4n3)ccn2)c1` [Example 401, [4-(5-Methoxy-4-piperazin-1-yl-pyrido[3,4-d]pyrimidin-2-yl)-pyridin-2-yl]-(4-methoxy-pyridin-2-yl)-amine]: the pIC50 was above 7.00. Under `COc1cncc2nc(-c3ccnc(Nc4cc(C#N)ccn4)c3)nc(N3CCC(O)CC3)c12` [Example 402, 2-{4-[4-(4-Hydroxy-piperidin-1-yl)-5-methoxy-pyrido[3,4-d]pyrimidin-2-yl]-pyridin-2-ylamino}-isonicotinonitrile] stands 6.00 to 7.00. As to `COc1cncc2nc(-c3ccnc(NC(=O)Cc4cccc(C#N)c4)c3)nc(N3CCC(O)CC3)c12` [Example 403, 2-(3-Cyano-phenyl)-N-{4-[4-(4-hydroxy-piperidin-1-yl)-5-methoxy-pyrido[3,4-d]pyrimidin-2-yl]-pyridin-2-yl}-acetamide], the pIC50 was 6.00 to 7.00. As for `COc1cncc2nc(-c3ccnc(NC(=O)Cc4cccc(C#N)c4)c3)nc(N3CCN(C)CC3)c12` [Example 404, 2-(3-Cyano-phenyl)-N-{4-[5-methoxy-4-(4-methyl-piperazin-1-yl)-pyrido[3,4-d]pyrimidin-2-yl]-pyridin-2-yl}-acetamide], the negative logarithm of the IC50 (pIC50) is 6.00 to 7.00. Then `COc1cncc2nc(-c3ccnc(NC(=O)[C@H](C)c4ccccc4)c3)nc(N[C@@H]3CCNC3)c12` [Example 406, (R)-N-{4-[5-Methoxy-4-((R)-pyrrolidin-3-ylamino)-pyrido[3,4-d]pyrimidin-2-yl]-pyridin-2-yl}-2-phenyl-propionamide], with 6.00 to 7.00; and `COc1cncc2nc(-c3ccnc(NC(=O)[C@@H](C)c4ccccc4)c3)nc(N[C@@H]3CCNC3)c12` [Example 407, (S)-N-{4-[5-Methoxy-4-((R)-pyrrolidin-3-ylamino)-pyrido[3,4-d]pyrimidin-2-yl]-pyridin-2-yl}-2-phenyl-propionamide], with 6.00 to 7.00. On to `COc1cncc2nc(-c3ccnc(NC(=O)[C@H](C)c4ccccc4)c3)nc(N3CCNCC3)c12` [Example 408, (R)-N-[4-(5-Methoxy-4-piperazin-1-yl-pyrido[3,4-d]pyrimidin-2-yl)-pyridin-2-yl]-2-phenyl-propionamide], for which the pIC50 was 6.00 to 7.00. Under `COc1cncc2nc(-c3ccnc(NC(=O)[C@@H](C)c4ccccc4)c3)nc(N3CCNCC3)c12` [Example 409, (S)-N-[4-(5-Methoxy-4-piperazin-1-yl-pyrido[3,4-d]pyrimidin-2-yl)-pyridin-2-yl]-2-phenyl-propionamide] stands 6.00 to 7.00; under `COc1cncc2nc(-c3ccnc(Nc4ncccc4C)c3)nc(N3CCNCC3)c12` [Example 410, [4-(5-Methoxy-4-piperazin-1-yl-pyrido[3,4-d]pyrimidin-2-yl)-pyridin-2-yl]-(3-methyl-pyridin-2-yl)-amine], 6.00 to 7.00; under `COc1cncc2nc(-c3ccnc(Nc4ncccc4F)c3)nc(N3CCNCC3)c12` [Example 411, (3-Fluoro-pyridin-2-yl)-[4-(5-methoxy-4-piperazin-1-yl-pyrido[3,4-d]pyrimidin-2-yl)-pyridin-2-yl]-amine], above 7.00. For `COc1cncc2nc(-c3ccnc(Nc4ccc(N5CCNCC5)nc4)c3)nc(N3CCNCC3)c12` [Example 412, [4-(5-Methoxy-4-piperazin-1-yl-pyrido[3,4-d]pyrimidin-2-yl)-pyridin-2-yl]-(6-piperazin-1-ylpyridin-3-yl)-amine], the negative logarithm of the IC50 (pIC50) was above 7.00.
